Experimental findings from patent US12371658B2, “Three-dimensional microtissues with integrated mechanical loading” (Carnegie Mellon University, priority 2017, dated 2025) are described below.

The experiment deals with cardiac MIFIs (HUES9-CMs with 10% FBs). As to the kind of experiment: side-on contractility assay of cardiac MIFIs with drug dosing (twitch force, beat frequency). The experiment is classed as cell-based, human. The conditions noted are these: for beat frequency relative to initial beat frequency: normalized to native beat frequency. The protocol:
MIFIs were removed from wells using forceps and were transferred to a 35 mm petri dish filled with 37° C. Tyrode's solution (1.192 g HEPES, 0.203 g MgCl2, 0.403 g KCl, 7.889 g NaCl, 0.04 g NaH2PO4, 0.901 g C6H12O6, and 0.265 g CaCl2) per liter of distilled water, pH 7.4). MIFIs were anchored by placing the wide base of the strip into a slit in a PDMS block glued to the bottom of the stimulation dish. The Tyrode's bath was maintained between 30° and 37° C. using a heated stage regulated by an in house Lab VIEW program. Videos of samples were taken using a NikonTM […] DSLR camera mounted on a NikonTM SMZ1500 stereomicroscope. Samples were paced from 2-10 Hz using parallel platinum electrodes placed 2 cm apart and immersed in Tyrode's solution. Samples were stimulated with 40V using a 10 ms square pulse wave. Shorter pulse durations can also be used (e.g., 2 ms, 4 ms, 6 ms, etc.). Carbachol and isoprenaline were mixed to stock concentrations of 5 mM in 1× Tyrode's solution. […] Caffeine was dissolved directly in Tyrode's to make a stock solution of 20 mM. […] Finite element modeling of bending PDMS strips was used to create lookup tables for strips ranging in thickness from 125 to 154 μm. FIGS. 9A-D show modeling data 930 for strips 900, 910, and 920. The elastic strip (e.g., strip 112) was modeled as 3D deformable extruded solid, with extruded thickness varying between 125 and 154 μm. The elastic strip was considered as linearly elastic, isotropic and incompressible material, with Young's modulus equal to 3.09 MPa according to elastic modulus measurements. The section of the elastic strip was considered as solid homogeneous. The force-driven bending simulation was designed to mimic the experimental procedure. One static general analysis step was used where the elastic strip was deformed by application of equal contractile force in three parallel axial connectors placed in the regions where the tissue was attached during the experiment, so that the total force would equal the sum of the contractile force of the three connectors. […] Additional boundary conditions were imposed based on geometrical symmetry. […] Finally, the finite element mesh was composed of 20-node quadratic, hybrid, reduced integration brick elements. From this model, the change in tissue length could then be used to calculate the force necessary to bend the strips to these conformations. Length changes of contracting MIFIs were tracked and resulting length data was used to calculate the corresponding force based on tissue length and strip parameters (e.g., thickness, width, length, elastic modulus, and shape). […] By tracking the change in tissue length of beating MIFIs, we calculated force generated by these tissues using force lookup tables. MIFIs were removed from wells, one side of the strip was placed in a slit in a PDMS block to anchor the MIFI for side-on viewing, and the construct was submerged in Tyrode's and placed between two parallel platinum electrodes for later stimulation by assay device 1300.

[1] abbreviates: Day 14, 10% FB MIFI, isoprenaline at 500 nM and 5 μM.
Setting [2] is: Day 14, 10% FB MIFI, carbachol dosing, concentration not given.

Structures are written as SMILES.

Take `Cn1c(=O)c2c(ncn2C)n(C)c1=O` [caffeine]: under “5 mM caffeine”, the “beat frequency relative to initial BPM” value turned out to be 1.59 ×. Further, the “effect on twitch force” value (Day 14, 10% FB MIFI, 55 mM caffeine) is recorded as “minimal impact on the twitch force”. Moreover, the “effect on spontaneous beat frequency” value (Day 14, 10% FB MIFI, 55 mM caffeine, after isoprenaline wash-out) is “increased the spontaneous beat frequency”.
With `CNC[C@H](O)c1ccc(O)c(O)c1` [epinephrine], the “twitch force as percent of initial twitch force” value is, setting by setting: (5 μM epinephrine, electrical pacing 2 Hz) 85%; (5 μM epinephrine, spontaneous beating) 66%; (50 μM epinephrine, electrical pacing 2 Hz) 80%; (50 μM epinephrine, spontaneous beating) 61%. The same compound came in with a twitch force (Day 14, 10% FB MIFI, 500 nM epinephrine, spontaneous beating) of 5.49 μN. The “effect on twitch force” value (Day 14, 10% FB MIFI, epinephrine 500 nM to 50 μM) is on record as “dose-dependent decrease in twitch force”. Also, the “beat frequency relative to initial BPM” value (epinephrine, first of two values, dose not given) stood at 1.42 ×.
For the compound `CC(C)NCC(O)c1ccc(O)c(O)c1` (centres unmarked) [isoprenaline], the “beat frequency relative to initial beat frequency” value reads like this: (500 nM isoprenaline) 1.27 ×; (50 μM isoprenaline) 1.48 ×. The “twitch force as percent of initial twitch force” value (Day 14, 10% FB MIFI, 500 nM isoprenaline) is listed as about 80%. Also, the twitch force (Day 14, 10% FB MIFI, 500 nM isoprenaline, 2 Hz paced) is recorded as 2.81 μN; the twitch force (Day 14, 10% FB MIFI, 500 nM isoprenaline, spontaneous beating) stood at 2.85 μN; the twitch force (Day 14, 10% FB MIFI, beating spontaneously in 5 M isoprenaline) is about 4.0 μN; the twitch force (Day 14, 10% FB MIFI, isoprenaline, 2 Hz paced) stood at 2.15 μN; the twitch force (Day 14, 10% FB MIFI, isoprenaline, spontaneous beating) stood at 1.78 μN. Besides, for the setting “Day 14, 10% FB MIFI, isoprenaline”, the “twitch force as percent of initial twitch strength” value is about 50%. In addition, the “effect on native beat frequency” value under setting [1] is “intended stimulatory effect”. Under setting [1], the “effect on twitch force” value is on record as “did not noticeably affect the twitch force”. Further, where the note is “Day 14, 10% FB MIFI, isoprenaline at 500 nM and 5 μM, 2 Hz pacing”, the “ability to electrically pace the constructs” value is on record as “did not interrupt the ability to electrically pace the constructs”.
On to `C[N+](C)(C)CCOC(N)=O` [carbachol], for which, under setting [2], the “effect on spontaneous beat frequency” value was “reduced the spontaneous beat frequency” and the “effect on twitch force” value is given as “surprisingly little impact on twitch force”. Further, under “Day 14 arrhythmic construct, carbachol 500 nM, 5 μM, 50 µM, spontaneous beating”, the “twitch force relative to twitch force of synchronous constructs” value was about 30%. Further, the “effect on spontaneous beat frequency of arrhythmic construct” value (Day 14 arrhythmic construct, increasing carbachol doses 500 nM, 5 μM, 50 µM) is recorded as “improvement in the spontaneous beat frequency”. For the same compound, the “fold stronger twitch contraction” value (arrhythmic construct, 2 Hz pacing coupled with 5 μM carbachol) is on record as 2.5 ×. Moreover, the “fold stronger twitch contraction” value (arrhythmic construct, 2 Hz pacing coupled with 50 μM carbachol) amounted to 2.8 ×. Besides, the “combinatorial effect of drug treatment with electric pacing on twitch force” value (arrhythmic construct, carbachol 5 μM and 50 μM, 2 Hz pacing) is listed as “significantly higher twitch forces”.
